Tests used:
[1] = biological target: T1, Lanosterol synthase (Rattus norvegicus, UniProt P48450); assay: Compound was evaluated for the inhibition of microsomal 2,3-oxidosqualene cyclase in rat liver microsomes; set-up: species or system Microsome; conditions: read-out: I50
T1 sequence (P48450 whole entry): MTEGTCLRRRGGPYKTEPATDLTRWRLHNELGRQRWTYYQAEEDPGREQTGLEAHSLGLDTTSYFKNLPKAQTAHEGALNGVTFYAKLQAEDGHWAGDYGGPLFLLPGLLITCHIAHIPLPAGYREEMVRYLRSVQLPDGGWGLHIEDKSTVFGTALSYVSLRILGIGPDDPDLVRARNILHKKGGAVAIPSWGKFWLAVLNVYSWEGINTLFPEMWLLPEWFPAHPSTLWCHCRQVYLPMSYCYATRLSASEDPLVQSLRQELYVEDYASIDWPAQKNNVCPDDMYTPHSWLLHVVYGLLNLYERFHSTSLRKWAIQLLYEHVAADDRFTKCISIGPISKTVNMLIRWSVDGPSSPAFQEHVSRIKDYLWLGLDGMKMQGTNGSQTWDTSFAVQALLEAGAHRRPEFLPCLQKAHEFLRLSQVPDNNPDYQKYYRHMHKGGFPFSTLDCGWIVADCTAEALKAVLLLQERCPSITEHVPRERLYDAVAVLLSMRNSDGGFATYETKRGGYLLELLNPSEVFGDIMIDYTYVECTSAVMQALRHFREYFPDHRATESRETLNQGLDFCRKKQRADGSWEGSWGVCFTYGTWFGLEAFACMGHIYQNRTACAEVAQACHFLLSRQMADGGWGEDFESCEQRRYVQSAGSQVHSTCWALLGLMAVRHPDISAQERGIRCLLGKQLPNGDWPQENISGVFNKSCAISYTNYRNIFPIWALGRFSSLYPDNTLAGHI

[2] = biological target: T1, Lanosterol synthase; assay: Compound was evaluated for the inhibition of microsomal 2,3-oxidosqualene-lanosterol cyclase in rat liver microsomes; set-up: species or system Microsome; conditions: read-out: I50

| SMILES | IC50 [1] | IC50 [2] |
| --- | --- | --- |
| CC(C)=CCC/C(C)=C/CCC(C)=CCCCN(C)CC/C=C(/C)CCC1OC1(C)C (configuration not stated) | > 20 µM | – |
| CC(C)=CCC/C(C)=C/CC/C(C)=C/CCCN(C)CC/C=C(\C)CCC1OC1(C)C (configuration not stated) | – | 4.8 µM |

Source: ChEMBL document CHEMBL1125522, “2,3-Epoxy-10-aza-10,11-dihydrosqualene, a high-energy intermediate analogue inhibitor of 2,3-oxidosqualene cyclase” (J Med Chem, 1992)
